The text below walks through data of ChEMBL document CHEMBL5226342, “Novel Reversible-Binding PET Ligands for Imaging Monoacylglycerol Lipase Based on the Piperazinyl Azetidine Scaffold” (J Med Chem, 2021).

Data set [1] is described as follows: Drug uptake in iv dosed Sprague-Dawley rat cerebral cortex measured for 90 mins by PET imaging based analysis. The class given is ADME, organism-based. The conditions noted are these: in vivo, 1.5 h.
Data set [2] is described as follows: Drug uptake in iv dosed Sprague-Dawley rat striatum measured for 90 mins by PET imaging based analysis. The class given is ADME, organism-based. The conditions noted are these: in vivo, 1.5 h.
The nature of data set [3]: Drug uptake in iv dosed Sprague-Dawley rat hippocampus measured for 90 mins by PET imaging based analysis. It counts as ADME, organism-based. The conditions noted are these: in vivo, 1.5 h.
The nature of data set [4]: Drug uptake in iv dosed Sprague-Dawley rat cerebellum measured for 90 mins by PET imaging based analysis. It counts as ADME, organism-based. The conditions noted are these: in vivo, 1.5 h.
A short description of data set [5]: Drug uptake in iv dosed Sprague-Dawley rat pons measured for 90 mins by PET imaging based analysis. It counts as ADME, organism-based. The settings on record: in vivo, 1.5 h.
A short description of data set [6]: Drug uptake in mouse brain treated with MAGL inhibitor, JNJ-42226314 at 15 mins post-drug administration by PET imaging based analysis. It counts as ADME, tissue-based. The settings on record: in vivo, 0.25 h.
The nature of data set [7]: Drug uptake in iv dosed rhesus monkey brain by PET imaging based analysis. The class given is ADME, organism-based, Macaca mulatta. The settings on record: in vivo.
The nature of data set [8]: Drug uptake in iv dosed rhesus monkey cortex by PET imaging based analysis. The settings on record: in vivo. It counts as ADME, organism-based, Macaca mulatta.
Data set [9] can be described thus: Drug uptake in iv dosed rhesus monkey cerebellum by PET imaging based analysis. It counts as ADME, organism-based, Macaca mulatta. The settings on record: in vivo.
Data set [10] in a line: Drug uptake in iv dosed rhesus monkey hippocampus by PET imaging based analysis. The class given is ADME, organism-based, Macaca mulatta. The conditions noted are these: in vivo.
A short description of data set [11]: Drug uptake in iv dosed rhesus monkey striatum by PET imaging based analysis. The class given is ADME, organism-based, Macaca mulatta. The conditions noted are these: in vivo.
Data set [12] can be described thus: Drug uptake in iv dosed rhesus monkey pons by PET imaging based analysis. The conditions noted are these: in vivo. The class given is ADME, organism-based, Macaca mulatta.
Data set [13] in a line: Drug uptake in iv dosed rhesus monkey cortex measured after 60 mins by PET imaging based analysis. It counts as ADME, organism-based, Macaca mulatta. The conditions noted are these: in vivo, 1 h.
The nature of data set [14]: Drug uptake in iv dosed rhesus monkey cerebellum measured after 60 mins by PET imaging based analysis. The class given is ADME, organism-based, Macaca mulatta. The settings on record: in vivo, 1 h.
Data set [15] is described as follows: Drug uptake in iv dosed rhesus monkey hippocampus measured after 60 mins by PET imaging based analysis. The class given is ADME, organism-based, Macaca mulatta. The conditions noted are these: in vivo, 1 h.
Data set [16] can be described thus: Drug uptake in iv dosed rhesus monkey striatum measured after 60 mins by PET imaging based analysis. It counts as ADME, organism-based, Macaca mulatta. The conditions noted are these: in vivo, 1 h.
The nature of data set [17]: Drug uptake in iv dosed CD-1 mouse heart measured after 60 mins by Ex vivo whole body biodistribution based analysis. The class given is ADME, organism-based. The settings on record: 1 h.
Data set [18] is described as follows: Drug uptake in iv dosed CD-1 mouse lung measured after 60 mins by Ex vivo whole body biodistribution based analysis. It counts as ADME, organism-based. The settings on record: 1 h.
Data set [19] in a line: Drug uptake in iv dosed CD-1 mouse pancreas measured after 60 mins by Ex vivo whole body biodistribution based analysis. The settings on record: 1 h. It counts as ADME, organism-based.
Data set [20] in a line: Drug uptake in iv dosed CD-1 mouse kidney measured after 60 mins by Ex vivo whole body biodistribution based analysis. The class given is ADME, organism-based. The conditions noted are these: 1 h.
Data set [21] in a line: Drug uptake in iv dosed CD-1 mouse liver measured after 60 mins by Ex vivo whole body biodistribution based analysis. It counts as ADME, organism-based. The settings on record: 1 h.
Data set [22] in a line: Metabolic stability of the compound in iv dosed Sprague-Dawley rat brain assessed as parent compound remaining measured after 30 mins by radio-HPLC analysis. It counts as ADME, organism-based. The conditions noted are these: read-out: Stability.
Data set [23] is described as follows: Metabolic stability of the compound in iv dosed Sprague-Dawley rat plasma assessed as parent compound remaining measured after 30 mins by radio-HPLC analysis. The class given is ADME, organism-based. The conditions noted are these: read-out: Stability.
Data set [24] can be described thus: Metabolic stability of the compound in iv dosed Sprague-Dawley rat brain assessed as parent compound remaining measured after 60 mins by radio-HPLC analysis. The class given is ADME, organism-based. The conditions noted are these: read-out: Stability.
Data set [25] can be described thus: Metabolic stability of the compound in iv dosed Sprague-Dawley rat plasma assessed as parent compound remaining measured after 60 mins by radio-HPLC analysis. It counts as ADME, organism-based. The settings on record: read-out: Stability.
Data set [26] is described as follows: Drug uptake in iv dosed rhesus monkey pons measured after 60 mins by PET imaging based analysis. The settings on record: in vivo, 1 h. It counts as ADME, organism-based, Macaca mulatta.
Data set [27] is described as follows: Drug uptake in iv dosed CD-1 mouse small intestine measured after 60 mins by Ex vivo whole body biodistribution based analysis. The class given is ADME, organism-based. The settings on record: 1 h.
For data set [28], the target named is T1, Monoglyceride lipase (Mus musculus) (UniProt O35678).
T1 sequence (whole entry): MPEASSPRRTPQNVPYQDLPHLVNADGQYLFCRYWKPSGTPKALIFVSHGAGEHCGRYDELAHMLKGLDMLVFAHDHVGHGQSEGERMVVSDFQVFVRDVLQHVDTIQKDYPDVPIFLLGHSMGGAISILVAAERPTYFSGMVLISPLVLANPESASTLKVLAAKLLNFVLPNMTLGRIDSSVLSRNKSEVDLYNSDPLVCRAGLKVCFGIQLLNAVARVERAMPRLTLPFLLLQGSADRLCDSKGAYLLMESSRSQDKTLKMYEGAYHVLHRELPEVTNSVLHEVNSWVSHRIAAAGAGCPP
Put plainly: Irreversible inhibition of MAGL in mouse brain membrane fraction assessed as enzyme recovery by measuring FP-rhodamine reactivity at 50 nM preincubated for 30 mins followed by FP-rhodamine challenge for 5 to 180 mins by Activity-Based Protein Profiling analysis. It counts as cell membranes. The conditions noted are these: time 35-210 min.

Active and inactive are the calls of the source. No cut-off for these calls is given here.

As to `O=C(c1ccc2c(ccn2-c2ccc([18F])cc2)c1)N1CC(N2CCN(C(=O)c3nccs3)CC2)C1`, the SUVmax in data set [1] was found to be 0.8; in data set [7], 0.9. The Drug uptake result is on record as “Active” in [2]; “Active” in [3]; “Active” in data set [4]; “Active” in data set [5]; “Not Active” in data set [6]; “Active” in data set [8]. For the same compound, the Drug uptake result is on record as “Active” in data set [9]; “Active” in data set [10]; “Active” in [11]; “Active” in data set [12]; “Not Active” in [13]; “Not Active” in [14]. The Drug uptake result in [15], in data set [16], in [17], in [18], in [19] and in [20] was “Not Active” in each case. The results for the Drug uptake entry in data set [21], in data set [26] and in [27] were “Active”, “Not Active” and “Active”, respectively. Also, the remaining at 0.5 h in data set [22] came to 97%; in [23] it was 81%. Besides, the remaining at 1 h was 94% in data set [24] and 56% in data set [25].

Take `O=C(ON1C(=O)CCC1=O)N1CCN(C(c2ccc(Cl)cc2)c2ccc(Cl)cc2)CC1`: the inhibition entry in data set [28] was “Active”.
